Literature values, collected in PMC7904743, “WIDOCK: a reactive docking protocol for virtual screening of covalent inhibitors” (Journal of Computer-Aided Molecular Design, 2021).
Like-named read-outs stand apart in the source and are kept apart here.

What was measured:
NUDT7 = conditions: protein labeling at 200 μM; experimental actives if % labeling higher than 50%; cited from earlier work
[1] = thiol reactivity, cited from earlier work
OTUB2 = conditions: experimental actives if % labeling higher than 50%, cited from earlier work
[2] = natural log of average rate constant k
[3] = natural logarithm of average rate constant
[4] = natural log of average kinetic rate constant
[5] = natural log of average rate constant

| SMILES | NUDT7 % labeling (NUDT7) [%] | ln(avg k) [1, 2] | ln(avg k) [1, 3] | OTUB2 % labeling (OTUB2) [%] | ln(avg k) [1, 4] | ln(avg k) [1, 5] | OTUB2 % labeling (OTUB2; OTUB2 protein labeling) [%] |
| --- | --- | --- | --- | --- | --- | --- | --- |
| CC(NC(=O)CCl)c1ccc(Cl)cc1Cl (stereo not shown) [PCM-0102212, CC(NC(=O)CCl)c1ccc(Cl)cc1Cl] | 54 | -16.295 | -16.295 | 18 | – | – | – |
| CC(C)(C)C(NC(=O)CCl)c1cccs1 (stereo not shown) [PCM-0102773, CC(C)(C)C(NC(=O)CCl)c1cccs1] | 9 | – | – | – | -16.457 | -16.457 | 0 |
| O=C(CCl)NCc1cccc(F)c1 [PCM-0103047, O=C(CCl)NCc1cccc(F)c1] | 0 | – | – | – | -16.636 | -16.636 | 43 |
| CC1CCCN(C(=O)CCl)C1 (stereo not shown) [PCM-0102867, CC1CCCN(C(=O)CCl)C1] | 0 | – | – | – | -16.989 | -16.989 | 0 |
| O=C(CCl)Nc1cc2c(cc1Cl)OCCCO2 [PCM-0102331, O=C(CCl)Nc1cc2c(cc1Cl)OCCCO2] | 36 | -16.178 | -16.178 | 26 | – | – | – |
| Cc1ccc(S(N)(=O)=O)cc1NC(=O)CCl [PCM-0102744, Cc1ccc(S(N)(=O)=O)cc1NC(=O)CCl] | 0 | – | – | – | -16.170 | -16.170 | 10 |
| O=C(CCl)Nc1ccc(I)cc1 [PCM-0102278, O=C(CCl)Nc1ccc(I)cc1] | 9 | -15.784 | -15.784 | 24 | – | – | – |
| O=C(CCl)NCC(=O)N1CCCC1 [PCM-0102391, O=C(CCl)NCC(=O)N1CCCC1] | 0 | -17.246 | -17.246 | 0 | – | – | – |
| Cc1cc([N+](=O)[O-])ccc1NC(=O)CCl [PCM-0102134, Cc1cc([N+](=O)[O-])ccc1NC(=O)CCl] | 10 | -16.240 | -16.240 | 11 | – | – | – |
| O=C(CCl)N(c1ccccc1)C1C=CS(=O)(=O)C1 (stereo not shown) [PCM-0102372, O=C(CCl)N(c1ccccc1)C1C=CS(=O)(=O)C1] | 28 | -15.071 | -15.071 | 0 | – | – | – |
| CN(Cc1ccc(Br)cc1)C(=O)CCl [PCM-0102401, CN(Cc1ccc(Br)cc1)C(=O)CCl] | 58 | -15.733 | -15.733 | 0 | – | – | – |
| O=C(CCl)N1CCN(Cc2ccco2)CC1 [PCM-0103006, O=C(CCl)N1CCN(Cc2ccco2)CC1] | 0 | – | – | – | -15.615 | -15.615 | 0 |
| O=C(CCl)N1CCSC1c1ccccc1F (stereo not shown) [PCM-0102293, O=C(CCl)N1CCSC1c1ccccc1F] | 83 | -15.618 | -15.618 | 12 | – | – | – |
| Cc1ccc(NC(=O)NC(=O)CCl)c(C)c1 [PCM-0102171, Cc1ccc(NC(=O)NC(=O)CCl)c(C)c1] | 20 | -15.812 | -15.812 | 10 | – | – | – |
| Cc1cccc(C(C)C)c1NC(=O)CCl [PCM-0102358, Cc1cccc(C(C)C)c1NC(=O)CCl] | 0 | -16.961 | -16.961 | 0 | – | – | – |
| O=C(CCl)N1CCOCC1C1CC1 (stereo not shown) [PCM-0102870, O=C(CCl)N1CCOCC1C1CC1] | 17 | – | – | – | -15.541 | -15.541 | 0 |
| COc1ccc(N2CCN(C(=O)CCl)CC2)cc1 [PCM-0102254, COc1ccc(N2CCN(C(=O)CCl)CC2)cc1] | 0 | -15.625 | -15.625 | 0 | – | – | – |
| Cc1c(C#N)c(NC(=O)CCl)n(-c2ccccc2)c1C [PCM-0102261, Cc1c(C#N)c(NC(=O)CCl)n(-c2ccccc2)c1C] | 30 | -16.038 | -16.038 | 9 | – | – | – |
| N#CC(c1ccccc1)N1CCN(C(=O)CCl)CC1 (stereo not shown) [PCM-0102381, N#CC(c1ccccc1)N1CCN(C(=O)CCl)CC1] | 11 | -15.106 | -15.106 | 0 | – | – | – |
| COc1ccc(C2=CCN(C(=O)CCl)CC2)cc1 [PCM-0102929, COc1ccc(C2=CCN(C(=O)CCl)CC2)cc1] | 45 | – | – | – | -16.042 | -16.042 | 0 |
| CC(C)C(C#N)N1CCN(C(=O)CCl)CC1 (stereo not shown) [PCM-0102263, CC(C)C(C#N)N1CCN(C(=O)CCl)CC1] | 17 | -14.716 | -14.716 | 31 | – | – | – |
| CN(Cc1ccc(Cl)cc1)C(=O)CCl [PCM-0102344, CN(Cc1ccc(Cl)cc1)C(=O)CCl] | 34 | -15.486 | -15.486 | 0 | – | – | – |

| SMILES | NUDT7 % labeling (NUDT7) [%] | ln(avg k) [1, 2] | ln(avg k) [1, 3] | OTUB2 % labeling (OTUB2) [%] | ln(avg k) [1, 4] | ln(avg k) [1, 5] | OTUB2 % labeling (OTUB2; OTUB2 protein labeling) [%] |
| --- | --- | --- | --- | --- | --- | --- | --- |
| CN(Cc1ccco1)C(=O)CCl [PCM-0102672, CN(Cc1ccco1)C(=O)CCl] | 10 | -15.763 | -15.763 | 0 | – | – | – |
| NC(=O)c1ccccc1NC(=O)CCl [PCM-0102758, NC(=O)c1ccccc1NC(=O)CCl] | 0 | – | – | – | -15.095 | -15.095 | 0 |
| CS(=O)(=O)c1ccccc1NC(=O)CCl [PCM-0102141, CS(=O)(=O)c1ccccc1NC(=O)CCl] | 0 | -16.264 | -16.264 | 0 | – | – | – |
| CC(NC(=O)CCl)c1ccccc1Cl (stereo not shown) [PCM-0102110, CC(NC(=O)CCl)c1ccccc1Cl] | 0 | -16.453 | -16.453 | 25 | – | – | – |
| O=C(CCl)Nc1ccccc1 [PCM-0102658, O=C(CCl)Nc1ccccc1] | 0 | -16.281 | -16.281 | 0 | – | – | – |
| CC(NC(=O)CCl)C1CC2CCC1C2 (stereo not shown) [PCM-0102572, CC(NC(=O)CCl)C1CC2CCC1C2] | 0 | -17.138 | -17.138 | 0 | – | – | – |
| O=C(CCl)Nc1ccncc1 [PCM-0102930, O=C(CCl)Nc1ccncc1] | 0 | – | – | – | -16.813 | -16.813 | 0 |
| O=C(CCl)NC(=O)NC1CC1 [PCM-0102411, O=C(CCl)NC(=O)NC1CC1] | 0 | -16.777 | -16.777 | 0 | – | – | – |
| O=C(CCl)N(C1CCCC1)C1CC1 [PCM-0103064, O=C(CCl)N(C1CCCC1)C1CC1] | 0 | – | – | – | -16.942 | -16.942 | 0 |
| CC(c1ccc(Cl)cc1)N(C)C(=O)CCl (stereo not shown) [PCM-0102556, CC(c1ccc(Cl)cc1)N(C)C(=O)CCl] | 39 | -15.842 | -15.842 | 0 | – | – | – |
| CN(C)C(=O)CN1CCN(C(=O)CCl)CC1 [PCM-0102304, CN(C)C(=O)CN1CCN(C(=O)CCl)CC1] | 0 | -16.500 | -16.500 | 0 | – | – | – |
| O=C(CCl)N1CCN(S(=O)(=O)c2ccccc2Cl)CC1 [PCM-0102837, O=C(CCl)N1CCN(S(=O)(=O)c2ccccc2Cl)CC1] | 18 | – | – | – | -15.224 | -15.224 | 0 |
| O=C(CCl)N1CCC(Cc2ccccc2)CC1 [PCM-0102492, O=C(CCl)N1CCC(Cc2ccccc2)CC1] | 18 | -16.081 | -16.081 | 18 | – | – | – |
| O=C(CCl)NCC1Cc2ccccc2O1 (stereo not shown) [PCM-0103020, O=C(CCl)NCC1Cc2ccccc2O1] | 0 | – | – | – | -17.072 | -17.072 | 0 |
| CCN1CCC(NC(=O)CCl)CC1 [PCM-0102103, CCN1CCC(NC(=O)CCl)CC1] | 0 | -15.455 | -15.455 | 0 | – | – | – |
| O=C(CCl)Nc1ccc(N2CCCC2)cc1 [PCM-0102670, O=C(CCl)Nc1ccc(N2CCCC2)cc1] | 0 | -13.297 | -13.297 | 48 | – | – | – |
| O=C(CCl)N1CCN(Cc2cccs2)CC1 [PCM-0102243, O=C(CCl)N1CCN(Cc2cccs2)CC1] | 8 | -15.851 | -15.851 | 0 | – | – | – |
| O=C(CCl)Nc1ccc(C(F)(F)F)cc1 [PCM-0102323, O=C(CCl)Nc1ccc(C(F)(F)F)cc1] | 7 | -15.637 | -15.637 | 17 | – | – | – |
| Cc1csc(N(C(=O)CCl)c2ccccc2)n1 [PCM-0102265, Cc1csc(N(C(=O)CCl)c2ccccc2)n1] | 19 | -15.232 | -15.232 | 6 | – | – | – |
| O=C(CCl)N1CCNCC1 [PCM-0102476, O=C(CCl)N1CCNCC1] | 0 | -17.059 | -17.059 | 0 | – | – | – |
| Cc1ccc(S(=O)(=O)N2CCN(C(=O)CCl)CC2)cc1 [PCM-0102759, Cc1ccc(S(=O)(=O)N2CCN(C(=O)CCl)CC2)cc1] | 12 | – | – | – | -15.424 | -15.424 | 0 |
